One may read the IC50 as the point on the concentration scale where inhibition reaches its midpoint.

The target of the test is T1, c-Met kinase (recombinant c-Met) (Homo sapiens, UniProt P08581).
T1 construct: 0.27 nM recombinant c-Met
T1 sequence (P08581 25-1390): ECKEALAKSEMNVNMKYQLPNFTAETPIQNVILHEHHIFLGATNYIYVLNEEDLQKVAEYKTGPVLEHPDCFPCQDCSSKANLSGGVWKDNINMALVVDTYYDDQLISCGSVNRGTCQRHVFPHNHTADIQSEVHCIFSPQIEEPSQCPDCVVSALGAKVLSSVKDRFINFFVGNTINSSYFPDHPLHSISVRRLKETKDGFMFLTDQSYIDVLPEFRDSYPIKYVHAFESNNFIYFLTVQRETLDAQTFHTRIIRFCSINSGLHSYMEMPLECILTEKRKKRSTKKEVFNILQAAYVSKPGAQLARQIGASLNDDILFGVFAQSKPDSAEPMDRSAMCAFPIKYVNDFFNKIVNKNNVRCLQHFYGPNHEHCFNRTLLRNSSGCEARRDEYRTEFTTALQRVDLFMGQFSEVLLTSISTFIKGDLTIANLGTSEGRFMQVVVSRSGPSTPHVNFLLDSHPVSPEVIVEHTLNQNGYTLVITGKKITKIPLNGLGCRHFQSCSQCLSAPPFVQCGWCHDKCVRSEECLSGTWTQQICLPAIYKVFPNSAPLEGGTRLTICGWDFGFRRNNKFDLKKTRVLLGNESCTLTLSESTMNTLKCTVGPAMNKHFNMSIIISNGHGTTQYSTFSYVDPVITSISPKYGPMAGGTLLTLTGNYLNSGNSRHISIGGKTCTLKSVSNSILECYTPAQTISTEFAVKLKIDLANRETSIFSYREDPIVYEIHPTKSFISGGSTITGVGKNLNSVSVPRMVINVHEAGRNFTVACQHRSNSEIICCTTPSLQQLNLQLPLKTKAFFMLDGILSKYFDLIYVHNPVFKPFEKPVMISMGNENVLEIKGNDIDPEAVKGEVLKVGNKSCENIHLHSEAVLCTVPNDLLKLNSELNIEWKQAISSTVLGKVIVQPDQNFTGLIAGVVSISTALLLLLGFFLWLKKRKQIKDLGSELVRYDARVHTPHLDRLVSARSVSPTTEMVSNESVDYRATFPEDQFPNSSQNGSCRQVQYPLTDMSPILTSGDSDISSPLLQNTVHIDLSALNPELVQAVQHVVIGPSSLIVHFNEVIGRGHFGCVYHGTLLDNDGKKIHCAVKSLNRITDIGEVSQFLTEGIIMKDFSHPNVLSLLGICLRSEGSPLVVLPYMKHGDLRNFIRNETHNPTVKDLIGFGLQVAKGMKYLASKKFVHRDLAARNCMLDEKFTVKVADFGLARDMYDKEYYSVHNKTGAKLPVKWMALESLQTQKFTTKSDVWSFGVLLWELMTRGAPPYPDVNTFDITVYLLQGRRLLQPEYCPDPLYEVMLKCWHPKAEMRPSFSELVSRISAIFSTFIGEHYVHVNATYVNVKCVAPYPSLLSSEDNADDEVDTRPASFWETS
The experiment in a line: In vitro kinase assay I (homogeneous time-resolved fluorescence tyrosine kinase assay). The test is classed as biochemical. On the procedure:
The kinase activities of c-Met are measured using a modified version of the homogeneous-time-resolved tyrosine kinase assay described by Park et al. (1999, Anal. Biochem. 269:94-104).
The procedure for determining the potency of a compound to inhibit c-Met kinase comprises the following steps: • 1. Prepare 3-fold serial diluted compound solutions in 100% dimethyl sulfoxide (DMSO) at 20× of the desired final concentrations in a 384-well plate. • 2. Prepare a master reaction mix containing 6.67 mM MgCl2, 133.3 mM NaCl, 66.7 mM Tris-HCl (pH 7.4), 0.13 mg/ml BSA, 2.67 mM dithiothreitol, 0.27 nM recombinant c-Met and 666.7 nM biotinylated synthetic peptide substrate (biotin-ahx-EQEDEPEGDYFEWLE-CONH2) (SEQ.ID.NO.:1). • 3. In a black assay plate, add 1.5 μl of compound solution (or DMSO) and 22.5 μl of master reaction mix per well. Initiate the kinase reaction by adding 6 μl of 0.25 mM MgATP per well. Allow the reactions to proceed for 60 min at room temperature. The final conditions for the reaction are 0.2 nM c-Met, 0.5 μM substrate, 50 μM MgATP, 5 mM MgCl2, 100 mM NaCl, 2 mM DTT, 0.1 mg/ml BSA, 50 mM Tris (pH 7.4) and 5% DMSO. • 4. Stop the kinase reaction with 30 μl of Stop/Detection buffer containing 10 mM EDTA, 25 mM HEPES, 0.1% TRITON X-100, 0.750 nM Eu-chelate labeled anti-phosphotyrosine antibody PY20 (cat. #AD0067, PerkinElmer) and 50 μg/ml Streptavidin-allophycocyanin conjugate (cat. #PJ25S, Prozyme). • 5. Read HTRF signals on a Victor reader (PerkinElmer) in HTRF mode after 60-min incubation at room temperature in the dark. • 6. IC50 is determined by fitting the observed relationship between compound concentration and HTRF signal with a 4-parameter logistic equation. II. GTL-16 pY1349 Cell-Based Assay
In the case of `Cn1cc(-n2ccc(=O)c(Cc3cccc(-c4ncc(C(=O)NCC5CCCOC5)cn4)c3)n2)cn1` (racemic) [Example 478, rac-2-(3-{[1-(1-methyl-1H-pyrazol-4-yl)-4-oxo-1,4-dihydro-pyridazin-3-yl]methyl}phenyl)-N-tetrahydro-2H-pyran-3-ylmethyl)pyrimidine-5-carboxamide], the IC50 is under 100 nM.
As for `Cn1cc(-n2ccc(=O)c(Cc3cccc(-c4ncc(C(=O)NCC5CCCO5)cn4)c3)n2)cn1` (racemic) [Example 483, rac-2-(3-{[1-(1-methyl-1H-pyrazol-4-yl)-4-oxo-1,4-dihydro-pyridazin-3-yl]methyl}phenyl)-N-(tetrahydro-furan-2-ylmethyl)pyrimidine-5-carboxamide], the IC50 is under 100 nM.
In the case of `O=C(Nc1cccc(Cc2nn(-c3cc(F)c(F)c(F)c3)ccc2=O)c1)OCC1COCCO1` (racemic) [Example 513, rac-1,4-dioxan-2-ylmethyl (3-{[4-oxo-1-(3,4,5-trifluorophenyl)-1,4-dihydropyridazin-3-yl]methyl}phenyl)carbamate], the IC50 is under 100 nM.
Take `O=C(Nc1cccc(Cc2nn(-c3cc(F)cc(F)c3)ccc2=O)c1)OCC1COCCO1` (racemic) [Example 520, rac-1,4-dioxan-2-ylmethyl (3-{[1-(3,5-difluorophenyl)-4-oxo-1,4-dihydropyridazin-3-yl]methyl}phenyl)carbamate]: the IC50 was under 100 nM.
As to `Cn1cc(-n2ccc(=O)c(Cc3cccc(NC(=O)OCC4CCOC4)c3)n2)cn1` (racemic) [Example 542, rac-tetrahydrofuran-3-ylmethyl (3-{[1-(1-methyl-1H-pyrazol-4-yl)-4-oxo-1,4-dihydropyridazin-3-yl]methyl}phenyl)carbamate], the IC50 was under 100 nM.
Regarding `O=C(Nc1cccc(Cc2nn(-c3cc(F)c(F)c(F)c3)ccc2=O)c1)OCC1CCOC1` (racemic) [Example 559, rac-tetrahydrofuran-3-ylmethyl (3-{[4-oxo-1-(3,4,5-trifluorophenyl)-1,4-dihydropyridazin-3-yl]methyl}phenyl)carbamate], the IC50 is under 100 nM.
For `Cn1cc(-n2ccc(=O)c(Cc3cccc(NC(=O)OCC4CCCO4)c3)n2)cn1` (racemic) [Example 562, rac-tetrahydrofuran-2-ylmethyl (3-{[1-(1-methyl-1H-pyrazol-4-yl)-4-oxo-1,4-dihydropyridazin-3-yl]methyl}phenyl)carbamate] the value was under 100 nM; for `Cn1cc(-n2ccc(=O)c(Cc3cccc(NC(=O)OCC4CCCCO4)c3)n2)cn1` (racemic) [Example 563, rac-tetrahydro-2H-pyran-2-ylmethyl (3-{[1-(1-methyl-1H-pyrazol-4-yl)-4-oxo-1,4-dihydropyridazin-3-yl]methyl}phenyl)carbamate], under 100 nM; for `Cn1cc(-n2ccc(=O)c(Cc3cccc(NC(=O)OCC4COCCO4)c3)n2)cn1` (racemic) [Example 568, rac-1,4-dioxan-2-ylmethyl (3-{[1-(1-methyl-1H-pyrazol-4-yl)-4-oxo-1,4-dihydropyridazin-3-yl]methyl}phenyl)carbamate], under 100 nM.
For `Cn1cc(-n2ccc(=O)c(Cc3cccc(NC(=O)OCC4CCCOC4)c3)n2)cn1` (racemic) [Example 569, rac-tetrahydro-2H-pyran-3-ylmethyl (3-{[1-(1-methyl-1H-pyrazol-4-yl)-4-oxo-1,4-dihydropyridazin-3-yl]methyl}phenyl)carbamate] the value was under 100 nM; for `CCC(C)COC(=O)Nc1cccc(Cc2nn(-c3cnn(C)c3)ccc2=O)c1` (racemic) [Example 573, rac-2-methylbutyl (3-{[1-(1-methyl-1H-pyrazol-4-yl)-4-oxo-1,4-dihydropyridazin-3-yl]methyl}phenyl)carbamate], under 100 nM.
With `Cn1cc(-n2ccc(=O)c(Cc3cccc(NC(=O)OCC4CCO4)c3)n2)cn1` (racemic) [Example 578, rac-oxetan-2-ylmethyl (3-{[1-(1-methyl-1H-pyrazol-4-yl)-4-oxo-1,4-dihydropyridazin-3-yl]methyl}phenyl)carbamate], the IC50 was under 100 nM.

Source of the values: US20120264735A1 (priority 2009, published 2012).
